The values that follow come from patent publication US8133694B2, “Functional vitamin D derivatives and method of determining 25-hydroxy- and 1α, 25-dihydroxy vitamin D” (Immundiagnostik AG, priority 1998, dated 2012).

In series [1] the test system is vitamin D-binding protein. Briefly: Competitive protein binding analysis (CBPA) with 3H-25-OH-vitamin D as tracer, cross reactions. The arrangement: species or system goat. How it is done:
In each case 100 μl vitamin D binding protein, isolated from goat serum (1:15000 in assay buffer with 3% (w/v) PEG 6000) together with 10 μl standard, control or sample (10 μl result from the sample preparation) was placed in the wells. The microtitration plate was incubated for 24 hours at 4EC in the dark and subject to shaking. Then, the solution was removed from the wells and the wells washed five times in each case with 200 μl washing buffer.
Insofar as no other indication is given, all reagents, buffers and materials were the same as in above-mentioned Example 3. There served as competitive binding partner (tracer) tritium-labelled 25-OH-vitamin D3. Differing from Example 3, the measurement samples were purified by means of extraction (into individual values). For this purpose, in each case 50 μl sample [non-specific assay buffer NSB, standard, control, patients sample (plasma, serum or urine)] was introduced into a 1.5 ml disposable reaction container, 200 μl acetonitrile added, mixed, the container walls centrifuged free, and the mixture incubated for 20 to 30 minutes at 4EC. The mixture was centrifuged at 1700×g for 10 minutes. The determinations were effected with the results using duplicate values.
For this purpose 25 μl clear result was transferred to a glass test tube (or into a special-RIA-container from Sarstedt, Darmstadt) and 10 μl tracer (3H-25-OH-D), 300 μl assay buffer and 100 μl vitamin D-binding protein (not in NSB) added. The test tube contents were mixed, incubated for one hour at 4EC and, to remove non-bound radioactive tracer, 100 μl activated charcoal suspension (activated charcoal containing phosphate buffer with 0.1% NaN3) was added. The test tube content was mixed, incubated for 3 to 5 minutes at 4EC, and the active charcoal pelletized by means of centrifuging for 10 minutes at 1700×g. Then, in each case 400 μl of the result was transferred to a counter container (7 ml) and, after the addition of 2 ml scintillator liquid such as Aquasafe™ 300 or HiSafe™ III, the radioactivity present in the result was counted (2 minutes in a beta-counter). […]

Series [2] deals with vitamin D binding protein from goat serum. Briefly: RIA for determining competition with 3H-25-OH-vitamin D3 and displacement efficiency. The arrangement: unit not given here. To be noted: tracer 3H-25-OH-vitamin D3. How it is done: Displacement efficiencies on vitamin D binding protein from goat serum and competition with ^3H-250H-vitamin D3 were measured for three vitamin D derivates using a RIA. The tested derivatives were 25-OH-vitamin D, biotinylated 25-OH-vitamin D3 of example 1 and 25-OH-D3 dimer of example 10.
The dimer having a short spacer has a lower displacement efficiecy than the corresponding biotinylated compound with the longer spacer group. […] For comparision, compound C in WO 97/24127 (Holick et al.) could only displace the tritiated compound from human vitamin D binding protein when it was present in eleven-fold excess. […] A longer spacer group in the vitamin D dimer leads to a higher affinity to DBP. An eleven fold lower affinity on the other hand is typical for vitamin D derivatives lacking the 25 hydroxy group which is essential for high affinity to vitamin D binding protein DBP.

The nature of series [3]: Stability of the 25-OH-D3-biotin compound in protonic solvent (NMR, HPLC). It counts as physicochemical. To be noted: protonic solvent pH 4-5; for HPLC analysis, compound intact: 200 days. How it is done:
In each case 20 mg purified 25-OH-D3-biotin compound (25-OH-vitamin D3-3β-3′[6-N-(biotinyl)-hexamido]amidopropylether) from Example 1 was placed in an NMR test tube to which 1 ml solvent was added. The solvent was a mixture of deuterium chloroform:deuterium acetonitrile: D2O in the ratio 3:2:1 with a pH-value between 4 and 5. The samples were stored for 200 days under the conditions set out below and the NMR spectra were investigated at regular intervals. • Sample 1: light excluded at −20EC; • Sample 2 light excluded at +4−6EC; • Sample 3: light excluded at room temperature; • Sample 4: subject to strong light (on a window ledge) at room temperature.
An HPLC analysis confirmed that samples 1 and 2 were intact even after 200 days in protonic solvent.

Where [4] appears, read: 250 nmol/l added to serum treated with activated charcoal.

As to `C=C1/C(=C\C=C2/CCC[C@]3(C)[C@@H]([C@H](C)CCCC(C)(C)O)CC[C@@H]23)C[C@@H](O)C[C@@H]1O` [1,25-(OH)2-vitamin D3], the cross-reaction result in series [1] (setting [4]) is “no cross-reactivity”.

As to `C=C1CCC(O)C/C1=C\C=C1\CCCC2(C)C1CCC2C(C)CCC(O)C(C)(C)O` (centres unmarked) [24,25-(OH)2-vitamin D3], the cross-reaction in series [1] (setting [4]) was 100%.

Take `C=C1CC[C@H](O)C/C1=C/C=C1\CCC[C@]2(C)[C@@H]([C@H](C)CCCC(C)(C)O)CC[C@@H]12` [25-OH-D3, 25-OH-vitamin D3, reference compound]: the B/Bo in series [2] (Conc. 0.1 ng/ml) was found to be 100; in series [2] (Conc. 1 ng/ml), 92; in series [2] (Conc. 10 ng/ml) it was 33; in series [2] (Conc. 100 ng/ml) it was 10; in series [2] (Conc. 1000 ng/ml) it was 7.

As for `C=C1CC[C@H](O)C/C1=C/C=C1\CCC[C@]2(C)[C@@H]([C@H](C)/C=C/[C@H](C)C(C)(C)O)CC[C@@H]12` [25-OH-vitamin D2], the cross-reaction in series [1] (125 nmol/l added to serum treated with activated charcoal) came to 60%.

Take `C=C1CC[C@H](OCCCNC(=O)CCCCCNC(=O)CCCCC2SCC3NC(=O)NC32)C/C1=C/C=C1\CCC[C@@]2(C)C1CC[C@@H]2C(C)CCCC(C)(C)O` (stereo partly drawn) [Biotin-25OH-D3, 25-Hydroxy vitamin D3-3β-3′[6-N-(biotinyl)hexamido]-amidopropylether]: the “HPLC analysis, compound intact” value in series [3] (Sample 1: light excluded at -20EC) and in series [3] (Sample 2: light excluded at +4-6EC) was “intact” in each case. For the same compound, the “HPLC analysis, compound still intact” value in series [3] (Sample 3: light excluded at room temperature, after 100 days) is given as “more than 78%”. Also, the degradation entry in series [3] (Sample 4: strong light (window ledge) at room temperature) is listed as “degraded after two months”. Moreover, the B/Bo is 100 in series [2] (Conc. 0.1 ng/ml); 99 in series [2] (Conc. 1 ng/ml); 63 in series [2] (Conc. 10 ng/ml); 15 in series [2] (Conc. 100 ng/ml); 8 in series [2] (Conc. 1000 ng/ml).
